Key:
LS174T cell line = assay: Cell toxicity test (WST-1); type: cell-based, human
Experimental: LS174-T human colorectal adenocarcinoma cells (ATCC, Manassas, Va.) were cultured in complete MEM medium (10% fetal bovine serum, 1% penicillin-streptomycin; Invitrogen, Carlsbad, Calif.) and placed in a humidified atmosphere at 37° C. and 5% CO2. Cells were passaged until they were 90% confluent, then detached with 0.25% trypsin-EDTA (Invitrogen, Carlsbad, Calif.).
One day prior to the treatment, cells were passaged at confluence and plated in flat bottom, clear, cell culture treated 96-well plates (Falcon, Franklin Lakes, N.J.) using a cell density of 2.5×10^4 cells/ml, 100 ul for each well overnight. After 24 h of incubation, the surface medium were aspirated carefully and cells were treated for 3 h as following groups: • 1 No treat Incomplete MEM medium were added. • 2. Dox 1 μg/ml Doxorubicin in incomplete MEM medium were added. • 3. Dox-NB 2000 times diluted original Dox-NB in incomplete MEM medium were added. • 4. […]
Plate wells were filled with relevant treatment medium, sealed with Parafilm® M (Fisher Scientific; Pittsburgh, Pa.), then inverted the plate to ensure the cells contact with Dox-NB for 20 min. […] After that, 1:10 diluted solution of WST-1 reagent ( ) replaced the medium and incubated for 1 h and then the plate was scanned with a TECAN plate reader (infinite M200, San Jose, Calif.) at 450 nm.

LS174-T cells = assay: Measurement of intracellular drug uptake; type: cell-based, human; settings: with and without TUS
Experimental: LS174-T cells were grown in a 12-well cell culture plate at a cell concentration of 2.5×10^4 cells/ml one day before the treatment. The treatment groups were the same as cell toxicity test above. After 2 h treatment in incubator, the drugs were aspirated and washed with sterile PBS 3 times. The attached cells were fixed with 3% formaldehyde solution for 10 min. After 3 times wash with PBS, the cells of different treatment groups were imaged at 5× and 20× on the Zeiss Axio Observer Z1 motorized FL microscope with the same parameter and scanned zones. Average Dox fluorescence of cells in different treatment groups was calculated by ImageJ.

What does the source list for `COc1cccc2c1C(=O)c1c(O)c3c(c(O)c1C2=O)C[C@@](O)(C(=O)CO)C[C@@H]3O[C@H]1C[C@H](N)[C@H](O)[C@H](C)O1` [Dox, Doxorubicin]?
Fluorescence value (cell viability test) (LS174T cell line; plus therapeutic ultrasound (TUS) 3 MHz, 2 W/cm2, 1 min): 0.28 ± 0.06; Fluorescence value (cell viability test) (LS174T cell line; without TUS, Dox 1 μg/ml, Dox-NB 2000 times diluted): 0.36 ± 0.10; location of Dox in treated cells (LS174-T cells): mainly located in nuclei
